Results as given in patent EP0612246B1, “PHARMACEUTICAL COMPOSITIONS OF GALLIUM COMPLEXES OF 3-HYDROXY-4-PYRONES” (BERNSTEIN, Lawrence Richard, priority 1991, dated 1993).

Assays:
[1] = Oral bioavailability study in rabbits: serum gallium by graphite furnace atomic absorption after oral gavage; assay type: in vivo, New Zealand white rabbits; details: for Mean gallium content of rabbit serum: 10 mg elemental gallium per kg, fasted 18 hours, 3 animals
Method: A test of the oral bioavailability of the 3:1 ethyl maltol:gallium complex in rabbits was conducted. In this test, the complex was given to rabbits and compared to a solution of gallium nitrate. Six female New Zealand white rabbits weighing between 2.68 and 2.91 kg were used, and were not fed for 18 hours before starting the experiment. A suspension of the 3:1 gallium ethyl maltol complex in double distilled water was prepared with a concentration of 10 mg elemental gallium per 4 ml of suspension. […] A small amount of solid sodium carbonate was added to the latter solution to bring the pH up to about 6. Each of the two solutions was given to three rabbits by oral gavage (through a tube inserted through the mouth to the stomach) in the amount of 4 ml per kg of body weight. The stomach tubes were flushed by three ml of water following administration of the solutions.
Six ml of blood was taken from each rabbit at 1 hour, 2 hours, 4 hours, 8 hours, and 24 hours following administration of the solutions, and the serum separated and frozen. Control samples of blood were taken 24 hours earlier. The frozen serum samples were then sent to an independent testing laboratory for determination of the gallium contents by graphite furnace atomic absorption analysis. The testing laboratory received numbered serum samples, and never had any knowledge of the experimental conditions used to produce the samples. Due to uncertainties in the analytical procedures for gallium in serum, the relative proportions of gallium in the serum samples are considered more significant than the actual reported concentrations.
It is important to note that no attempt was made to counteract the adverse effects of the 3:1 gallium ethyl maltol complex being exposed to the acidic conditions of the stomach. This study should therefore be considered to give a minimal value for the oral bioavailability of the gallium ethyl maltol complex compared to gallium nitrate.

[2] = assay type: physicochemical
Method: The stability of the neutral 3:1 maltol:gallium complex was studied in aqueous solutions at various pH values. The complex was studied at two concentrations in double distilled deionized water: 2.5 X 10^-6 M and 1.0 X 10^-2 M. The pH was adjusted by adding either 1N HCl or 1N Na2CO3. The stability of the complex was determined using ultraviolet spectroscopy over the region 200-450 nm at 25°C. Several absorption peaks are observed in this range, including those at about 212-217 nm, 248 nm, 273 nm, 318 nm, and 385 nm. An isobesic point occurs over much of the pH range at about 290 nm. In the very dilute solutions (2.5 X 10^-6 M), the neutral 3:1 complex appears to be stable from about pH 4.5 to 9.5. For the less dilute solutions (1.0 X 10^-2 M), the determination was more difficult due to the very high absorbance.

gallium nitrate
Mean gallium content of rabbit serum ([1]; 1 hour after oral gavage): 51 ng/mL | Mean gallium content of rabbit serum ([1]; 2 hours after oral gavage): 99 ng/mL | Mean gallium content of rabbit serum ([1]; 4 hours after oral gavage): 118 ng/mL | Mean gallium content of rabbit serum ([1]; 8 hours after oral gavage): 103 ng/mL | Mean gallium content of rabbit serum ([1]; 24 hours after oral gavage): 64 ng/mL

Cc1occc(=O)c1[O-].Cc1occc(=O)c1[O-].Cc1occc(=O)c1[O-].[Ga+3] [gallium maltol]
stability region (pH) [2]: very similar to that of the highly dilute solution, possibly slightly wider

CCc1occc(=O)c1[O][Ga]([O]c1c(CC)occc1=O)[O]c1c(CC)occc1=O [gallium ethyl maltol]
absorption compared to gallium nitrate of equal volume and gallium concentration ([1]; rabbit, in vivo, po): significantly higher amounts
